Experimental data taken from patent US11858993B2, “Multi-specific antibodies with affinity for human A33 antigen and DOTA metal complex and uses thereof” (Memorial Sloan Kettering Cancer Center, priority 2015, dated 2024).
pKd: −log10 of the molar value. Where “and” joins values, the source holds several entries; their conditions need not be identical. Identical values can stand only once. Entries after “also recorded” stand apart in the source; their conditions may differ. Like-named read-outs stand apart in the source and are kept apart here.

Assays:
[1] = test system: SW1222 s.c. xenografts; assay: Three-cycle theranostic PRIT with nanoSPECT/CT dosimetry; assay type: in vivo, Nude mice
Method: Nude mice bearing established SW1222 s.c. xenografts (n=20; tumor volume=102±40 mm^3; average±standard deviation (SD)) underwent treatment (n=5-10/group) with either: no treatment (n=5), ^177Lu-DOTA-Bn only (n=5), or a three-cycle PRIT regimen consisting of anti-GPA33 PRIT+55 MBq of ^177Lu-DOTA-Bn (n=10; total: 165 MBq). Serial nanoSPECT/CT imaging was conducted on five randomly selected mice undergoing DPRIT up to 160 hours post-injection of the first cycle of ^177Lu-DOTA-Bn for dosimetry calculations.

[2] = test system: A33-positive SW1222 xenografts; settings: for Complete Response / Cures at 40 d post-treatment: Single-cycle; for tumor volume: day 23 post tumor-inoculation, average±SEM
From the text: All animal experiments were approved by the Institutional Animal Care and Use Committee of Memorial Sloan Kettering Cancer Center and institutional guidelines for the proper and humane use of animals in research were followed. Athymic nu/nu female mice (6-8 weeks old; Harlan Sprague Dawley) were allowed to acclimate in the vivarium for at least one week. […] All reagents were given intravenously (i.v.) via the lateral tail vein. […] In addition, huA33-C825 was trace radiolabeled with I-131 to estimate tumor uptake during PRIT. […] (Lindmo, T. et al., 1990, J. Immunol. Meth. 126(2):183-189). For PRIT with non-specific IgG-C825, an equivalent mg dose of a GD2-targeted bispecific antibody (hu3F8-C825) was used in place of huA33-C825. For ex vivo biodistribution analysis, mice were euthanized by CO2(g) asphyxiation, and tumor and selected organs were harvested, rinsed with water and allowed to air-dry, weighed and radioassayed by gamma scintillation counting (Perkin Elmer Wallac Wizard 3″). Count rates were background and decay corrected, converted to activities using a system calibration factor, normalized to the administered activity, and expressed as percent injected dose per gram (% ID/g). Differences in ^177Lu-activity concentration in tumor and various tissues were analyzed by Student's unpaired t test when appropriate.

[3] = test system: A33-positive SW1222 xenografts; assay: Dual-cycle PRIT therapy study; settings: for Complete Response / Cures at 40 d post-treatment / absorbed radiation dose, Blood / absorbed radiation dose, Kidney / absorbed radiation dose, Tumor: Dual-cycle
From the text: In a second therapy study, dual-cycle huA33-C825 PRIT treatment was investigated.
The following definitions were used to describe treatment response: a complete response (CR) is defined as tumor shrinkage to <100 mm^3. […] Excessive tumor burden is defined as >2000 mm^3.

[4] = test system: SW1222 tumor; assay: PRIT optimization biodistribution (huA33-C825 dose, clearing agent dose), 24 h p.i. of ^177Lu-DOTA-Bn; settings: for tumor-to-organ ratio, kidney: 24 h p.i.
Method: Next, additional biodistribution experiments were performed to optimize the CA dose during PRIT with 0.25 mg (1.19 nmol) as the huA33-C825 dose. Groups of tumor-bearing mice (n=3 to 4 per group) with were injected with huA33-C825, followed 24 h later with either: saline (i.e. vehicle), 2.4% (w/w, with respect to 0.25 mg huA33-C825 dose), 5% (w/w), 10% (w/w), or 25% (w/w) CA doses (0-62.5 μg/mouse). After an additional 4 h, mice were injected with 5.6 MBq of ^177Lu-DOTA-Bn, and sacrificed 24 h later for biodistribution analysis.
Next, ^177Lu-DOTA-Bn dose titration studies were performed using the optimized PRIT doses for huA33-C825 and CA. For ^177Lu-DOTA-Bn dose titration studies, the ^177Lu-activity biodistribution data for tumor and critical select tissues (blood, liver, spleen, and kidneys) was compared between ^177Lu-DOTA-Bn dose groups as both % ID/g and absolute uptake (kBq/g; see FIGS. 4A, 4B). Finally, a single-time point biodistribution experiment at 24 h p.i. of ^131I-trace labeled huA33-C825 (0.39-0.40 MBq with cold huA33-C825 added to 1.19 nmol) was performed in SW1222-tumor bearing mice to estimate the absolute antibody uptake of huA33-C825 in tumor (as pmol/g) during PRIT.
All animal experiments were approved by the Institutional Animal Care and Use Committee of Memorial Sloan Kettering Cancer Center and institutional guidelines for the proper and humane use of animals in research were followed. Athymic nu/nu female mice (6-8 weeks old; Harlan Sprague Dawley) were allowed to acclimate in the vivarium for at least one week. […] All reagents were given intravenously (i.v.) via the lateral tail vein. […] In addition, huA33-C825 was trace radiolabeled with I-131 to estimate tumor uptake during PRIT.

[5] = test system: BSA-(Y)-DOTA-Bn; assay: Biacore T100 surface plasmon resonance, binding to BSA-(Y)-DOTA-Bn
Method: Binding affinity was measured by Biacore T100.
Biacore T100 Biosensor, CM5 sensor chip, and related reagents were purchased from GE Healthcare. Recombinant human A33 protein was purchased from Novoprotein. A BSA-(Y)-DOTA-Bn conjugate was prepared as described (Cheal et al., supra). A33 and DOTA antigens were immobilized using the Amino Coupling kit (GE Healthcare). Purified bispecific antibodies and control antibodies were analyzed, and data were fit to a bivalent analyte model using the Biacore T100 evaluation software as described (Cheal et al., supra).

[6] = Triple-cycle, + 55.5 MBq (×3), 165.0 MBq
[7] = single-cycle huA33-C825 PRIT+either 11.1 MBq or 33.3 MBq ^177Lu-DOTA-Bn
[8] = dual-cycle PRIT, 66.6 or 111 MBq ^177Lu-DOTA-Bn pooled
[9] = two cycles of PRIT+55.5 (total 111.0 MBq)
[10] = Biacore T100, bivalent analyte model

huA33-C825: bispecific antibody: humanized A33 IgG1 with murine C825 anti-DOTA-Bn scFv linked to the light chain C-terminus
mice cured ([1]; 3 cycle dosing regimen): 10/10
Complete Response [1, 6]: 10/10
Cures at 40 d post-treatment [1, 6]: 10/10
histopathologic findings of kidney, liver, spleen, and bone/marrow ([1]; mouse, in vivo): no remarkable histopathologic findings
radiation dose to blood ([1]; mouse, in vivo): 150 rads
radiation dose to kidney ([1]; mouse, in vivo): 875 rads
toxicity ([1]; three-cycle PRIT (total 165 MBq)): without detectable toxicity; also recorded: no obvious toxicities
tumor-free survival at 100 days ([1]; three-cycle PRIT, 55 MBq/cycle (total 165 MBq)): all treated animals
Complete Response ([2]; + 11.1 MBq): 0/8
Cures at 40 d post-treatment ([2]; + 11.1 MBq): 0/8
Complete Response ([2]; + 33.3 MBq): 0/8
Cures at 40 d post-treatment ([2]; + 33.3 MBq): 0/8
tumor volume ([2]; 11.1 MBq ^177Lu-DOTA-Bn): 694±138 mm^3
tumor volume ([2]; 33.3 MBq ^177Lu-DOTA-Bn): 495±76 mm^3
effective dose range (tumor) ([2]; mouse, in vivo): 1800-2200 cGy
complete response (CR) [2, 7]: no CR
slight growth delay of the tumors, up to (days following treatment) [2, 7]: ~15 days
Complete Response ([3]; + 11.1 MBq (×2), 22.2 MBq): 2/5
Cures at 40 d post-treatment ([3]; + 11.1 MBq (×2), 22.2 MBq): 1/5
absorbed radiation dose, Blood ([3]; + 11.1 MBq (×2), 22.2 MBq): 0.2 Gy
absorbed radiation dose, Kidney ([3]; + 11.1 MBq (×2), 22.2 MBq): 1.2 Gy
absorbed radiation dose, Tumor ([3]; + 11.1 MBq (×2), 22.2 MBq): 14.6 Gy
Complete Response ([3]; + 33.3 MBq (×2), 66.6 MBq): 5/5
Cures at 40 d post-treatment ([3]; + 33.3 MBq (×2), 66.6 MBq): 2/5
absorbed radiation dose, Blood ([3]; + 33.3 MBq (×2), 66.6 MBq): 0.6 Gy
absorbed radiation dose, Kidney ([3]; + 33.3 MBq (×2), 66.6 MBq): 3.5 Gy
absorbed radiation dose, Tumor ([3]; + 33.3 MBq (×2), 66.6 MBq): 43.8 Gy
Complete Response ([3]; + 55.5 MBq (×2), 111.0 MBq): 4/4
Cures at 40 d post-treatment ([3]; + 55.5 MBq (×2), 111.0 MBq): 2/4
absorbed radiation dose, Blood ([3]; + 55.5 MBq (×2), 111.0 MBq): 1.0 Gy
absorbed radiation dose, Kidney ([3]; + 55.5 MBq (×2), 111.0 MBq): 5.9 Gy
absorbed radiation dose, Tumor ([3]; + 55.5 MBq (×2), 111.0 MBq): 73.0 Gy
alive without recurrence at more than 140 d [3, 8]: 2/9
complete responses [3, 8]: 9/9
complete response, share of test subjects ([3]; dual-cycle dosing): approximately 80%
time to reach 500 mm^3 in recurrent tumors (individual mice) [3, 9]: 34 days and 45 days and 42 days
tumor size at time of sacrifice (single mouse) [3, 9]: 44 mm^3
tumor-to-organ ratio, kidney ([4]; 65 μg CA dose level (25% (w/w))): 18.4±13.4
reduction in ^177Lu-DOTA-Bn tumor uptake compared with PRIT with saline ([4]; mouse, in vivo): ~50%
tumor-to-organ ratio, blood ([4]; mouse, in vivo): 2.2±0.4
tumor-to-organ ratio, muscle ([4]; mouse, in vivo): 23.2±3.8
tumor-to-organ ratio, kidney ([4]; saline (no CA)): 4.9±0.6
koff [5, 10]: 0.00022 s⁻¹
kon [5, 10]: 19000 M⁻¹ s⁻¹
pKd ([5]; FIG. 2B): 7.94
